For 7 molecules, IC50, Activity and CC50 results are on record in ChEMBL document CHEMBL4699462, “Prenylated Flavonoids from the Roots of Tephrosia rhodesica” (J Nat Prod, 2020).

The structures appear in SMILES notation.

The test system of one series is Plasmodium falciparum. The series is described as follows: Antiplasmodial activity against chloroquine-sensitive Plasmodium falciparum 3D7 infected in human erythrocytes assessed as inhibition of parasite growth incubated for 72 hrs by DAPI staining based fluorescence analysis. The class given is functional, organism-based. As to conditions: 3D7, Erythrocyte.
In a further series the test system is HEK293. The series is described as follows: Cytotoxicity against human HEK293 cells at 40 uM. The class given is cell-based. The following applies: hek293, 40 µM.
Series [1] in a line: Cytotoxicity against human HEK293 cells assessed as cell death. Format: cell-based. The following applies: read-out: LD50 (the source's name).

In general, IC50 refers to the midpoint of a concentration-inhibition curve.

As for `CC(C)=CCc1cc2c(cc1O)OC[C@@]1(O)c3cc4c(cc3O[C@@H]21)OCO4`, in the series on Plasmodium falciparum, the IC50 was 10.2 µM. Further, in the series on HEK293, the Activity stood at 27%.

Turning to `C=C(C)[C@H]1Cc2c(ccc3c2O[C@@H]2C(O)Oc4cc(OC)c(OC)cc4[C@@H]2C3=O)O1` (stereo partly drawn), the 50% inhibitory concentration (IC50) with Plasmodium falciparum came to 8.6 µM. The CC50 in series [1] amounted to 10.9 µM.

As for `COc1cc(OC)c2c(c1CC=C(C)C)O[C@H](c1ccccc1)C[C@H]2OC`, the IC50 with Plasmodium falciparum came to 7.4 µM. The molecule further yielded an Activity with HEK293 of 87%.

For `COc1cc(OC)c2c(c1CC=C(C)C)O[C@H](c1ccccc1)C[C@H]2O`, the half-inhibitory concentration (IC50) in the series with Plasmodium falciparum came to 14.5 µM.

As for `CC(C)=CCC1(CC=C(C)C)C(=O)C(=O)C2=C1O[C@H](c1ccccc1)C[C@H]2O` (relative stereo), the half-inhibitory concentration (IC50) with Plasmodium falciparum came out at 7 µM. This molecule also yielded an Activity with HEK293 of 101%.

With `CC(C)=CCC1(CC=C(C)C)C(=O)[C@](O)(CC=C(C)C)C(=O)C2=C1O[C@H](c1ccccc1)C[C@H]2O` (relative stereo), the IC50 in the series on Plasmodium falciparum is 5.7 µM. In addition, the Activity in the series on HEK293 is given as 34%.

On to `CC(C)=CCC1(CC=C(C)C)C(=O)[C@@](O)(CC=C(C)C)C(=O)C2=C1O[C@H](c1ccccc1)C[C@H]2O` (relative stereo), for which the IC50 in the series with Plasmodium falciparum is 7.3 µM. Moreover, in the series with HEK293, the Activity is 71%.
